Assay results from ChEMBL document CHEMBL1201862, “PubChem BioAssay data set” (2004).
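Following 48 hours of exposure in 96-well plates, responses at five concentrations were used to interpolate endpoints linearly. GI50 is the concentration that inhibits growth by half.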 The source made the active and inactive calls. Cut-off read from the data, not from the text of the source: active = GI50 up to about 1.1 µM and inactive = higher.

What was measured:
Experiment in all cases: inhibition of tumour cell growth, NCI panel, 48 h
A549 = system: A549
MDA-MB-231 = system: MDA-MB-231
OVCAR-5 = system: OVCAR-5
NCI-H226 = system: NCI-H226
IGROV-1 = system: IGROV-1
OVCAR-8 = system: OVCAR-8
HOP-92 = system: HOP-92
MDA-N = system: MDA-N
TK-10 = system: TK-10
SK-OV-3 = system: SK-OV-3
PC-3 = system: PC-3
LOX IMVI = system: LOX IMVI
SR = system: SR
COLO 205 = system: COLO 205
NCI-H23 = system: NCI-H23
SK-MEL-2 = system: SK-MEL-2
RPMI-8226 = system: RPMI-8226
SK-MEL-5 = system: SK-MEL-5
RXF 393 = system: RXF 393
NCI/ADR-RES = system: NCI/ADR-RES

Measured: GI50

C=C1C(=O)OC2/C=C(\COC(C)=O)CCC(OC(C)=O)C3=CC(OC3=O)C12 (configuration not stated)
inactive: A549 20 µM | MDA-MB-231 19.1 µM | OVCAR-5 17.7 µM | NCI-H226 23.9 µM | IGROV-1 23.8 µM | OVCAR-8 3.31 µM | HOP-92 3.49 µM | MDA-N > 10 µM | TK-10 5.28 µM | SK-OV-3 14.6 µM | PC-3 16.4 µM | LOX IMVI 5.45 µM | SR 2.3 µM | COLO 205 2.14 µM | NCI-H23 8.95 µM | SK-MEL-2 6.46 µM | RPMI-8226 3.53 µM | SK-MEL-5 11.6 µM | RXF 393 1.59 µM

c1ccc2c(c1)SCCCSCCCS2
inactive: A549 > 100 µM | MDA-MB-231 65.3 µM | OVCAR-5 > 100 µM | IGROV-1 > 100 µM | OVCAR-8 > 100 µM | HOP-92 60.1 µM | MDA-N > 100 µM | TK-10 > 100 µM | SK-OV-3 > 100 µM | PC-3 > 100 µM | NCI/ADR-RES > 100 µM | LOX IMVI > 100 µM | SR 50.5 µM | COLO 205 74.5 µM | NCI-H23 > 100 µM | SK-MEL-5 > 100 µM

CC1CCC2C(C)C(OC(=O)CCC(=O)O)OC3OC4(C)CCC1C32OO4 (configuration not stated)
active: PC-3 0.353 µM | LOX IMVI 1.06 µM | SR 0.519 µM | RPMI-8226 0.246 µM
inactive: A549 11.9 µM | MDA-MB-231 > 100 µM | OVCAR-5 1.31 µM | IGROV-1 10.4 µM | OVCAR-8 3.47 µM | HOP-92 11.6 µM | MDA-N 2.65 µM | TK-10 2.99 µM | SK-OV-3 53.6 µM | NCI/ADR-RES 4.62 µM | COLO 205 1.42 µM | SK-MEL-2 3.86 µM | SK-MEL-5 1.57 µM

COC(=O)C1(Cc2ccccc2)Cc2ccccc2C1=O (configuration not stated)
inactive: A549 32.9 µM | MDA-MB-231 83.6 µM | OVCAR-5 > 100 µM | NCI-H226 35.6 µM | IGROV-1 72.8 µM | OVCAR-8 50.8 µM | HOP-92 59.2 µM | MDA-N 32.1 µM | TK-10 57 µM | SK-OV-3 > 100 µM | PC-3 44.9 µM | NCI/ADR-RES 25.7 µM | LOX IMVI 43.7 µM | SR 23.8 µM | COLO 205 49.9 µM | NCI-H23 45.8 µM | SK-MEL-2 19.1 µM | RPMI-8226 35 µM | SK-MEL-5 20 µM

CC1=C(C(=O)Nc2ccccc2)C(c2ccc(C3C(C(=O)Nc4ccccc4)=C(C)NC(C)=C3C(=O)Nc3ccccc3)cc2)C(C(=O)Nc2ccccc2)=C(C)N1
inactive: A549 8.05 µM | MDA-MB-231 2.8 µM | OVCAR-5 7.35 µM | NCI-H226 3.96 µM | IGROV-1 2.52 µM | OVCAR-8 3.03 µM | HOP-92 3.51 µM | MDA-N 3.23 µM | TK-10 6.46 µM | SK-OV-3 13.1 µM | PC-3 3.23 µM | LOX IMVI 1.61 µM | SR 2.03 µM | COLO 205 3.21 µM | NCI-H23 2.86 µM | SK-MEL-2 2.07 µM | RPMI-8226 2.61 µM | SK-MEL-5 2.26 µM | RXF 393 1.91 µM

CC(=O)OC12c3ccccc3C(c3ccccc31)C1C(=O)N(N=C(C)C)C(=O)C12 (configuration not stated)
inactive: A549 > 100 µM | MDA-MB-231 > 100 µM | OVCAR-5 > 100 µM | NCI-H226 > 100 µM | IGROV-1 > 100 µM | OVCAR-8 > 100 µM | MDA-N > 100 µM | TK-10 > 100 µM | SK-OV-3 > 100 µM | PC-3 > 100 µM | NCI/ADR-RES > 100 µM | LOX IMVI > 100 µM | SR > 100 µM | COLO 205 > 100 µM | NCI-H23 > 100 µM | RPMI-8226 > 100 µM | SK-MEL-5 > 100 µM | RXF 393 > 100 µM

Cc1c(O)c(C)c2c(C)cn(C(=O)C(C)(C)C)c2c1C
active: HOP-92 0.0206 µM
inactive: A549 22.9 µM | MDA-MB-231 15.2 µM | OVCAR-5 30.2 µM | NCI-H226 12.1 µM | IGROV-1 21.6 µM | OVCAR-8 20.1 µM | MDA-N 21.2 µM | TK-10 20.5 µM | SK-OV-3 22.2 µM | PC-3 21.2 µM | NCI/ADR-RES 34.1 µM | LOX IMVI 35 µM | COLO 205 16.6 µM | NCI-H23 15.5 µM | SK-MEL-2 28.2 µM | RPMI-8226 29.6 µM | SK-MEL-5 14.7 µM | RXF 393 12.4 µM
